# Assays:
# Purkinje neurons = assay: Loose-patch extracellular recording in cerebellar slices; format: cell-based, rat; conditions: 200 μM for 10 minutes; full-field 360 nm light; n=5
# Method: Brain Slice Preparation. Parasagittal cerebellar slices were prepared using standard techniques approved by the UCLA Animal Care Committee. […] PAL attachment. […] For cerebellar slices, neuronal cell bodies were visualized using an upright microscope with a 40× water immersion lens and equipped with an infrared-DIC enhancement. Loose-patch extracellular recordings were performed using an Axopatch 200B amplifier (Axon Instruments). Electrophysiological recordings were filtered at 1 KHz and digitized at 2-4 KHz. Pipettes were typically 1.4-2.0 MΩ for recordings from PNs and 3.0-3.5 MΩ for interneurons and filled with aCSF. […] All recordings were performed at room temperature. […] Excitation filters were changed using a lambda 10-2 filter changer (Sutter Instruments) controlled via pCLAMP software.
# rat retina = assay: AAQ injection into the rat eye (ERG, retinal toxicity); format: in vivo
# Method: Rats were dark-adapted overnight, and the entire procedure was done under very dim red light. Rats were anesthetized and placed in a standard electroretinogram (ERG) setup. Recording electrodes were embedded in contact-like cups, which were mounted onto each eye with a conductive adherent fluid. Reference electrodes were placed in the mouth. A light source emitted brief flashes of white light at various intensities. The electrical response of the retina to each light flash was recorded; three trials per intensity were averaged together. Under normal conditions, the ERG will consist of a small downward deflection (A-wave), which reflects the activity of photoreceptors, and a larger upward deflection (B-wave), which reflects the activity of bipolar cells.
# [1] = tested on: transient inward current (voltage-gated Na+ and Ca2+ currents) in neurons; assay: Voltage-clamp of transient inward current in PAL-treated neurons; format: cell-based, rat; conditions: Cs+ in the patch pipette
# Method: Electrophysiological recording. Recordings from HEK293 and hippocampal neurons were made in the whole-cell patch clamp configuration using a PC-501A amplifier (Warner Instruments). Pulse protocols and measurements were carried out with pCLAMP and a Digidata 1322 interface (Axon Instruments). For voltage-clamp experiment, cells were held at −70 mV. Data was recorded at 20 kHz and filtered at 2 kHz. […]
smiles,measurement,setting,value
C=CC(=O)Nc1ccc(/N=N/c2ccc(NC(=O)C[N+](CC)(CC)CC)cc2)cc1 [AAQ],increase in firing frequency,Purkinje neurons,42±12%
same,toxic consequences on rat retina (ERG),rat retina; 7 days post injection,without toxic consequences
same,effects on retinal neurons after injection into the vitreous humor,rat retina; rat eye,no detectable deleterious effects
same,light-sensitivity of transient inward current,[1],does not become light-sensitive

# Reference: patent publication US8114843B2, “Photoreactive regulator of protein function and methods of use thereof” (The Regents of the University of California, priority 2005, dated 2012)
